Experimental data reported in patent publication US7938981B2, “Deicing and heat transfer fluid compositions” (Bioamber S.A.S., priority 2009, dated 2011).
Read-outs that look alike come from different tables or passages of the source.

How the values were obtained:
[1] = Biological Oxygen Demand (BOD5), 5 day test; conditions: 50% (wt.) concentration in water, ratio BOD5 to COD
Source text: The oxygen demand of a compound during chemical oxidation and biological degradation is an indication of the persistence of the chemical in the environment. […] BOD is the amount of oxygen required for biological oxidation by bacteria growing under aerobic conditions. The ratio of BOD to COD can be used to assess whether a compound is readily biodegradable. When BOD5 is expressed as a percentage of COD, a BOD5 that is <1% of COD indicates a relatively nonbiodegradable compound and >10% of COD indicates a relatively degradable compound (the subscript “5” denotes a 5 day test).

[2] = 25% (wt.) concentration in water; cited from earlier work
[3] = 50% (wt.) concentration in water, in five days, value with literature reference 17, cited from earlier work

Structure (SMILES) | Biodegradability (BOD5/COD)% ([1]; listed as Potassium Succinate) [%] | Biodegradability (BOD5/COD)% ([1]; listed as succinate) | Freezing point [2] | Biodegradability (BOD5/COD)% ([3]; listed as Potassium formate) [%^17] | Biodegradability (BOD5/COD)% ([3]; listed as potassium formate) [%] | Biodegradability (BOD5/COD)% [1]
O=C([O-])CCC(=O)[O-].[K+].[K+] [Test No. 1, potassium succinate] | 68 | highly biodegradable | −12.5^14 °C | – | – | –
O=C[O-].[K+] [Test No. 3, potassium formate] | – | – | −15.0^17 °C | 100 | 100 | –
CC(=O)[O-].[K+] [Test No. 2, potassium acetate] | – | – | −18.0^14 °C | – | – | highly biodegradable
CC(O)CO (stereo not drawn) [Propylene Glycol] | – | – | −11.0^21 °C | – | – | 59%
OCCO [Ethylene Glycol] | – | – | −12.0^20 °C | – | – | 61%
